Results reported in ChEMBL document CHEMBL5154849, “Overcoming undesirable hERG affinity by incorporating fluorine atoms: A case of MAO-B inhibitors derived from 1 H-pyrrolo-[3,2-c]quinolines” (Eur J Med Chem, 2022).

Test: in vitro
Conditions: rat, liver microsomes

Q: For `COc1cccc(Cn2ccc3c(N4CCC(F)(F)CC4)nc4ccccc4c32)c1`, which CLint scaled at 10 µM is on record?
A: 43 mL/min/kg
